Source: ChEMBL document CHEMBL2203011, “Psammaplysin derivatives from the Balinese marine sponge Aplysinella strongylata” (J Nat Prod, 2012)
Active and inactive are the calls of the source. No cut-off for these calls is given here.

Each compound was assayed on Plasmodium falciparum (assay: Antiplasmodial activity against chloroquine-sensitive Plasmodium falciparum 3D7 infected in erythrocytes assessed as growth inhibition at 10 uM incubated for 48 hrs by [3H]hypoxanthine incorporation assay).
Type: functional, organism-based
In the case of `CCCCC/C=C\CCCCCCCCC(=O)NCCc1cc(Br)c(OCCCNC(=O)C2=NO[C@@]3(CC(Br)=C(OC)C(Br)=CO3)[C@H]2O)c(Br)c1`, the “growth inhibition (GI)” value is reported as “inactive”.
For `COC1=C(Br)C[C@]2(OC=C1Br)ON=C(C(=O)NCCCOc1c(Br)cc(CCNC(=O)CO)cc1Br)[C@@H]2O`, the “growth inhibition (GI)” value was “inactive”.
For `COC1=C(Br)C[C@]2(OC=C1Br)ON=C(C(=O)NCCCOc1c(Br)cc(C3CNC(=O)O3)cc1Br)[C@@H]2O` (some centres undefined), the “growth inhibition (GI)” value was “inactive”.
In the case of `COC1=C(Br)C[C@]2(OC=C1Br)ON=C(C(=O)NCCCOc1c(Br)cc(C=O)cc1Br)[C@@H]2O`, the “growth inhibition (GI)” value is reported as “inactive”.
`COC1=C(Br)C[C@]2(OC=C1Br)ON=C(C(=O)NCCCOc1c(Br)cc(C(O)CNC=C3C(=O)C=CC3=O)cc1Br)[C@@H]2O` (some centres undefined) was tested, and the “growth inhibition (GI)” value was “Active”.
For `CCC(C)CCCCCCCCCCCCCCC(=O)NCCc1cc(Br)c(OCCCNC(=O)C2=NO[C@@]3(CC(Br)=C(OC)C(Br)=CO3)[C@H]2O)c(Br)c1` (some centres undefined), the “growth inhibition (GI)” value was “inactive”.
With `COC1=C(Br)C[C@]2(OC=C1Br)ON=C(C(=O)NCCCOc1c(Br)cc(CCNC(=O)CCCCCCCCCCCCC(C)C)cc1Br)[C@@H]2O` the “growth inhibition (GI)” value was “inactive”.
`CCCCCCCCCCCCCCCCCC(=O)NCC(O)c1cc(Br)c(OCCCNC(=O)C2=NO[C@@]3(CC(Br)=C(OC)C(Br)=CO3)[C@H]2O)c(Br)c1` (some centres undefined) was tested, and the “growth inhibition (GI)” value was “inactive”.

What follows are compounds tested on Plasmodium falciparum (assay: Antiplasmodial activity against chloroquine-sensitive Plasmodium falciparum 3D7 infected in erythrocytes assessed as growth inhibition incubated for 48 hrs by [3H]hypoxanthine incorporation assay).
Type: functional, organism-based
`COC1=C(Br)C[C@]2(OC=C1Br)ON=C(C(=O)NCCCOc1c(Br)cc(C(O)CNC=C3C(=O)C=CC3=O)cc1Br)[C@@H]2O` (some centres undefined) was tested, and the IC50 was 6.4 µM.
